# According to the supplement of paper PMC10307832:
# Tests used:
# Test in all cases: relative viability (nuclei count vs DMSO), 5 days (fraction); higher = more cells survive
# IPA-3 + Crizotinib = compound: C1=CC=C2C(=C1)C=CC(=C2SSC3=C(C=CC4=CC=CC=C43)O)O [IPA-3] + C[C@@H](Oc1cc(-c2cnn(C3CCNCC3)c2)cnc1N)c1c(Cl)ccc(F)c1Cl [Crizotinib] (partner 1 µM)
# Summary of the method: (§1)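 Lung cancer cell lines in 1536-well plates got either a single drug or a fixed anchor-drug dose together with five library-drug doses (not always all listed) in √10 steps, by pin tool, on the day after seeding. Nuclei were counted after 5 days, and relative viability is the treated-to-vehicle ratio of nuclei counts. Values are medians of duplicate plates.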
# [1] = compound: Cc1ccc(-n2nc(C(C)(C)C)cc2NC(=O)Nc2ccc(OCCN3CCOCC3)c3ccccc23)cc1 [Doramapimod] + CC(=O)c1c(C)c2cnc(Nc3ccc(N4CCNCC4)cn3)nc2n(C2CCCC2)c1=O [Palbociclib] (partner 0.5 µM)
# Summary of the method: as §1
# RAF265 + Vorinostat = compound: Cn1c(Nc2ccc(C(F)(F)F)cc2)nc2cc(Oc3ccnc(-c4ncc(C(F)(F)F)[nH]4)c3)ccc21 [RAF265] + O=C(CCCCCCC(=O)Nc1ccccc1)NO [Vorinostat] (partner 1 µM)
# Summary of the method: as §1
Cell Line,relative viability (IPA-3 + Crizotinib; first compound 0.2 µM),relative viability (IPA-3 + Crizotinib; first compound 0.6325 µM),relative viability (IPA-3 + Crizotinib; first compound 2 µM),relative viability (IPA-3 + Crizotinib; first compound 6.325 µM),relative viability (IPA-3 + Crizotinib; first compound 20 µM),relative viability ([1]; first compound 0.02 µM),relative viability ([1]; first compound 0.06325 µM),relative viability ([1]; first compound 0.2 µM),relative viability ([1]; first compound 0.6325 µM),relative viability ([1]; first compound 2 µM),relative viability (RAF265 + Vorinostat; first compound 0.01 µM),relative viability (RAF265 + Vorinostat; first compound 0.03162 µM),relative viability (RAF265 + Vorinostat; first compound 0.1 µM),relative viability (RAF265 + Vorinostat; first compound 0.3162 µM),relative viability (RAF265 + Vorinostat; first compound 1 µM)
NCI-H727,0.937,0.765,0.818,0.699,0.792,0.603,0.639,0.656,0.705,0.692,1.26,1.16,1.03,1.24,0.862
HARA,1.21,1.22,1.09,1.14,1.24,0.232,0.275,0.262,0.297,0.264,0.454,0.64,0.537,0.546,0.192
NCI-H2228,0.437,0.383,0.439,0.376,0.597,0.797,1.04,0.746,0.686,0.66,0.554,0.653,0.52,0.324,0.275
LCLC-97TM1,0.439,0.355,0.448,0.315,0.343,0.233,0.211,0.257,0.219,0.171,0.719,0.508,0.544,0.525,0.421
LC-2-ad,0.499,0.523,0.419,0.477,0.488,0.521,0.467,0.502,0.529,0.529,0.774,0.7,0.729,0.596,0.387
SK-LU-1,1.27,–,0.929,0.823,0.89,0.4,0.4,0.396,0.401,0.337,0.715,0.449,0.443,0.36,0.262
EKVX,1.24,0.965,0.951,0.799,1.22,0.427,0.351,0.366,0.337,0.342,0.775,0.659,0.87,–,0.581
HCC-827,0.927,0.89,0.865,0.873,0.859,0.456,0.479,0.493,0.475,0.329,0.866,0.808,0.543,–,0.704
NCI-H650,0.824,0.548,0.627,0.802,0.909,0.368,0.341,0.395,0.343,0.345,0.442,0.418,0.42,0.277,0.232
CAL-12T,0.479,0.6,0.699,0.516,0.69,0.413,0.45,0.421,0.434,0.511,0.781,0.825,0.61,0.606,0.372
NCI-H1648,–,–,–,–,–,0.262,0.293,0.248,0.249,0.234,0.464,0.539,0.352,0.317,0.263
NCI-H522,–,–,–,–,–,1.02,1.04,1.03,0.954,0.817,0.841,1.02,1.05,0.872,0.857
IA-LM,1.25,0.683,0.904,0.553,0.555,–,–,–,–,–,1.06,0.779,0.895,0.925,0.849
EPLC-272H,1.16,0.808,0.995,0.912,1.23,0.356,0.342,0.345,–,0.286,0.503,0.472,0.318,0.22,0.113
A-427,1.11,0.775,0.896,0.91,1.12,0.488,0.521,0.52,–,0.54,0.89,0.829,0.892,0.733,0.423
NCI-H647,1.22,1.01,0.991,0.596,0.173,0.346,0.335,0.375,0.404,0.345,0.627,0.411,0.585,0.397,0.356
NCI-H1975,1.21,0.896,0.968,0.883,0.952,0.583,0.576,0.488,0.596,0.512,0.718,0.644,0.542,0.338,0.325
NCI-H358,0.454,0.663,0.611,0.595,0.574,0.153,0.137,0.138,0.195,0.133,0.744,0.564,0.613,0.459,0.178
PC-3 [JPC-3],1.04,0.964,0.937,0.976,0.923,0.588,0.549,0.549,0.571,0.565,0.942,0.78,1.08,0.455,0.487
NCI-H1792,1.14,1.01,1.01,0.996,1.16,0.701,0.645,0.598,0.596,0.546,–,–,–,–,–
NCI-H596,1.08,0.597,1.08,1.1,1.24,–,–,–,–,–,0.809,0.642,0.642,0.589,0.522
RERF-LC-KJ,0.794,0.796,0.922,0.789,0.816,1.11,1.04,1.06,1.17,1.2,0.704,0.647,0.772,0.649,0.582
NCI-H322M,1.08,0.933,0.96,0.886,1.1,0.458,0.492,0.483,0.554,0.486,0.875,0.866,0.516,0.403,0.348
COR-L 105,0.954,0.757,0.704,0.788,0.964,0.398,0.421,0.404,0.449,0.351,1.03,0.896,0.845,0.725,0.495
NCI-H1993,0.71,0.811,0.885,0.889,0.998,0.641,0.58,0.621,0.596,0.504,0.9,0.902,0.756,0.823,0.768

Cell Line,relative viability (IPA-3 + Crizotinib; first compound 0.2 µM),relative viability (IPA-3 + Crizotinib; first compound 0.6325 µM),relative viability (IPA-3 + Crizotinib; first compound 2 µM),relative viability (IPA-3 + Crizotinib; first compound 6.325 µM),relative viability (IPA-3 + Crizotinib; first compound 20 µM),relative viability ([1]; first compound 0.02 µM),relative viability ([1]; first compound 0.06325 µM),relative viability ([1]; first compound 0.2 µM),relative viability ([1]; first compound 0.6325 µM),relative viability ([1]; first compound 2 µM),relative viability (RAF265 + Vorinostat; first compound 0.01 µM),relative viability (RAF265 + Vorinostat; first compound 0.03162 µM),relative viability (RAF265 + Vorinostat; first compound 0.1 µM),relative viability (RAF265 + Vorinostat; first compound 0.3162 µM),relative viability (RAF265 + Vorinostat; first compound 1 µM)
NCI-H1437,1.19,0.896,1.04,0.895,1.34,0.337,0.31,0.278,0.368,0.304,0.823,0.778,0.947,0.887,0.715
NCI-H838,1.02,0.788,0.914,0.839,1.27,0.218,0.217,0.203,0.225,0.199,0.735,0.716,0.72,0.691,0.632
NCI-H1666,1.1,1.04,1.07,1.15,0.799,0.734,0.641,0.69,0.704,0.613,1.13,0.923,0.906,0.99,0.854
NCI-H1944,1.21,0.995,1.11,1.17,1.07,0.321,0.306,0.322,0.307,0.271,0.674,0.602,0.55,0.405,0.491
NCI-H2023,0.714,0.58,0.809,0.735,0.893,0.299,0.367,0.296,0.392,0.323,0.59,0.501,0.707,0.515,0.381
EBC-1,0.188,0.186,0.168,0.195,0.193,–,–,–,–,–,–,–,–,–,–
NCI-H1755,0.971,0.763,0.964,0.808,0.95,0.478,0.484,0.444,0.416,0.418,0.8,0.663,0.694,0.579,0.476
NCI-H23,0.488,0.376,0.599,0.545,0.654,0.458,0.485,0.482,0.52,0.568,0.701,0.496,0.39,0.248,0.229
ABC-1,1.12,1.17,–,0.981,1.06,0.642,0.732,0.683,0.845,0.817,1.34,0.853,1.3,0.982,0.644
201T,1.04,1.01,1.05,1.03,1.04,0.363,0.351,0.321,0.368,0.336,0.975,0.966,0.998,0.974,0.994
NCI-H1734,0.745,0.648,0.71,0.703,0.698,0.204,0.308,0.314,0.299,0.27,0.801,0.715,0.731,0.536,0.322
NCI-H520,0.962,0.803,0.682,0.74,0.919,0.214,0.222,0.21,0.213,0.214,0.777,0.579,0.688,0.572,0.55
NCI-H1650,1.04,0.816,1.14,0.938,1.28,0.411,0.363,0.428,0.425,0.35,0.615,0.587,0.595,0.655,0.566
NCI-H1355,1.21,0.999,0.778,1.07,1.11,0.412,0.373,0.413,0.385,0.368,0.641,0.607,0.578,0.604,0.419
NCI-H1915,1.02,0.905,0.923,0.867,0.949,0.507,0.547,0.469,0.525,0.487,0.502,0.436,0.424,0.296,0.201
BEN,1.01,0.905,0.98,0.788,0.961,0.462,0.459,0.504,0.387,0.541,0.569,0.586,0.6,0.662,0.544
NCI-H1563,0.899,0.891,0.938,1.11,1.02,–,–,–,–,–,–,–,–,–,–
SW 900,–,–,–,–,–,0.57,0.537,0.558,0.584,0.531,0.544,0.494,0.503,0.381,0.227
NCI-H1299,0.974,0.935,0.96,0.928,0.961,–,–,–,–,–,–,–,–,–,–
A549,0.886,0.76,0.745,0.819,0.89,–,–,–,–,–,–,–,–,–,–
NCI-H1793,–,–,–,–,–,0.317,0.293,0.283,0.287,0.273,0.865,0.697,0.633,0.201,0.311
NCI-H1703,0.819,0.593,0.757,0.669,0.469,–,–,–,–,–,–,–,–,–,–
NCI-H1395,–,–,–,–,–,0.67,0.6,0.64,0.58,0.583,0.791,0.65,0.807,0.554,0.587
NCI-H2342,–,–,–,–,–,0.523,0.585,0.632,0.524,0.535,0.714,0.809,0.851,0.667,0.764
Calu-6,1.06,0.75,0.81,0.795,0.966,–,–,–,–,–,–,–,–,–,–
